# Reference: publication PMC10159843, “Babesia duncani multi-omics identifies virulence factors and drug targets” (Nature Microbiology, 2023)
# Where two headings read alike, the source gives them in different places.
# Legend:
# [1] = MTT cytotoxicity on HEK293 cells; type: cell-based, human; conditions: human, HEK293 cells, read-out: HEK293 LC50
# Procedure: (§1) HeLa, HepG2, HEK and HCT116 cell lines were obtained from the American Type Culture Collection and maintained in Dulbecco’s modified Eagle’s medium (Invitrogen 11995-065) containing 25 mM glucose, 1 mM sodium pyruvate and supplemented with 5 mM HEPES, 10% FBS and penicillin-streptomycin (50 U ml^−1 penicillin, 50 µg ml^−1 streptomycin). An estimated 20,000 cells per well were seeded in a 96-well tissue culture plate and allowed to adhere. After 24 h, cells were treated with either vehicle alone (0.1% dimethylsulfoxide) or vehicle containing different concentrations of the target drugs using a 2-fold serial dilution starting at 10 mM. Dimethylsulfoxide at 10% was used as a positive control. Cells were incubated at 37 °C for 72 h, after which each well was incubated with 0.5 mg ml^−1 of MTT reagent (Cayman Chemical, 10009591) for 4 h in the dark at 37 °C. Following addition of 100 µl dimethylsulfoxide to each well, absorbance was measured at optical density (OD)590 nm using Spectra max plate reader. From the obtained OD values, percent cell viability was calculated by normalizing to the mean of 10% dimethylsulfoxide wells (set as 100% toxicity) and the mean of the vehicle control wells (set as 0% toxicity). Dose-response curves were plotted using GraphPad Prism v9.1.2
# [2] = MTT cytotoxicity on HCT116 cells; type: cell-based, human; conditions: human, HCT116 cells, read-out: HCT LC50
# Procedure: as §1
# [3] = MTT cytotoxicity on HeLa cells; type: cell-based, human; conditions: human, HeLa cells, read-out: HeLa LC50
# Procedure: as §1
# [4] = MTT cytotoxicity on HepG2 cells; type: cell-based, human; conditions: human, HepG2 cells, read-out: HepG2 LC50
# Procedure: as §1
# [5] = test system: B. duncani; assay: microbe, parasite or virus in culture; type: cell-based, Babesia duncani
# [6] = target: B. duncani DHFR-TS (Babesia duncani, UniProt A0AAD9UQZ8); type: biochemical
# Chain of B. duncani DHFR-TS (A0AAD9UQZ8 1-514): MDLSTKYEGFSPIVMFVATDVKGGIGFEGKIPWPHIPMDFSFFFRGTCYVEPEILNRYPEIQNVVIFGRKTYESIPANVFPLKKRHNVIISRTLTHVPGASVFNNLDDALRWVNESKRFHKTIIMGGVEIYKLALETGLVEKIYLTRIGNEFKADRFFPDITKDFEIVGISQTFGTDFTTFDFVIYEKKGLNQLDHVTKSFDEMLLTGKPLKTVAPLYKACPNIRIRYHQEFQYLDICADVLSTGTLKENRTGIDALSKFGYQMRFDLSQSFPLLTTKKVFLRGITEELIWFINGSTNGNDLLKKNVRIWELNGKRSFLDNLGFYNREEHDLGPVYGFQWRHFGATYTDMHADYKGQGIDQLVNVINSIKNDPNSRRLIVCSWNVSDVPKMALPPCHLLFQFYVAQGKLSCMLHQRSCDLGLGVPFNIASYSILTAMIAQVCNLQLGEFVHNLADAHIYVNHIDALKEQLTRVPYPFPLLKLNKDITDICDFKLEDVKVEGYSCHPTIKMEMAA
# [7] = target: B. microti DHFR-TS (Babesia microti, UniProt A0A1R4AAV1); type: biochemical
# Chain of B. microti DHFR-TS (A0A1R4AAV1 1-502): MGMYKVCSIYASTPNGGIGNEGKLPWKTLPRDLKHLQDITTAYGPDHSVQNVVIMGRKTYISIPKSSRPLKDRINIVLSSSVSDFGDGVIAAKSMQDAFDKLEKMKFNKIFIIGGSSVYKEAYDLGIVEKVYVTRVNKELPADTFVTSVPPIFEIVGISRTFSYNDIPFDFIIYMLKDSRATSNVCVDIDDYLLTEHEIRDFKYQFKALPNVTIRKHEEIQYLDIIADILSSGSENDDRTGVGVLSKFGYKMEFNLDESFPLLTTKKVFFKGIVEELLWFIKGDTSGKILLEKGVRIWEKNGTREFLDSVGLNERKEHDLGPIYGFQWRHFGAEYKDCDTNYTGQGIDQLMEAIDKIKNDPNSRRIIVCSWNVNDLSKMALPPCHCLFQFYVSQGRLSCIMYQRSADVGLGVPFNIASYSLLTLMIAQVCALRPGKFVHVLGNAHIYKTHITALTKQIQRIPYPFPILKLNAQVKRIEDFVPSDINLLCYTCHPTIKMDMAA
# [8] = test system: B. duncani; conditions: continuous in vitro culture in human erythrocytes; cited from earlier work
# [9] = test system: HEK293; assay: MTT cytotoxicity on HEK293 cells; type: cell-based, human; conditions: 72 h, read-out: HEK293 LC50
# Procedure: as §1
# [10] = test system: HCT116; assay: MTT cytotoxicity on HCT116 cells; type: cell-based, human; conditions: 72 h, read-out: HCT LC50
# Procedure: as §1
# [11] = test system: BmDHFR-TS; assay: Inhibition of DHFR enzymatic activity of recombinant BmDHFR-TS; type: biochemical, B. microti; conditions: 0.1 μM enzyme, 300 μM DHF, 300 μM NADPH
# Procedure: (§2) The IC50 was determined from a sigmoidal dose-response curve using GraphPad Prism v9.1.2. […]
# (§3) denatured (2 X 20 min in 0.5N NaOH; 1.5 M NaCl) and neutralized (2 X 20 min in 0.5 M Tris-HCl, pH 7.5; 1.5 M NaCl). Southern blotting was done on nylon membrane, positively charged
# (§4) (Cat. No. 1417240, Roche) using 10X SSC and followed by UV crosslinking of transferred DNA.
# (§5) The membrane was hybridized overnight at 26 °C with the telomere probe and then washed twice for 5 min each in 2X SSC and for 20 min each in 0.5X SSC at 26°C. Bound probe was detected with disodium-2-chloro-5(4 methoxyspiro (1,2-dioxetane-3.2´-[5-chloro]tricycle[3.3.1.1.3.7] decan)-4-yl)-1-phenyl phosphate (CDP-StarTM, Cat. No.12041677001, Roche) according to the manufacturer’s instructions. The membrane was visualized using an Amersham ImageQuant 800 system (GE Healthcare Bio-Science AB, Uppsala, Sweden).
# (§6) Cloning, Expression, and Purification of recombinant B. duncani and B. microti DHFR-TS […]
# (§7) duncani (BdDHFR-TS) and B. microti (BmDHFR-TS) were cloned into pMAL-c4x by GenScript USA Inc. Both enzymes were expressed as fusion proteins with N’-terminal maltose-binding protein (MBP) tag. Constructs of pMAL-c4x-BdDHFR-TS and pMAL-c4x-BmDHFR-TS were transformed by heat shock into E. coli BL-21(DE3). E. coli BL-21(DE3) harboring pMAL-c4x-DHFR-TS was grown overnight in 2 ml LB ampicillin (100 µg/mL). […]
# [12] = test system: human cell lines; assay: In vitro therapeutic index of antifolates against human cell lines; type: cell-based; conditions: human cell lines versus B. duncani IC50
# Procedure: Drug efficacy against B. duncani in vitro was determined using the SYBR Green assay as previously described. Briefly, a culture of B. duncani-infected human erythrocytes at 0.1% parasitemia and 5% haematocrit was maintained for 60 h in vitro in a 96-well plate in the absence or presence of varying concentrations of the drug of interest at concentrations ranging between 0.6 nM and 10 µM. An equal volume of lysis buffer (0.008% saponin, 0.08% Triton X-100, 20 mM Tris-HCl (pH 7.5) and 5 mM EDTA) containing SYBR Green-I (0.01%) was added to each well and the plate incubated at 37 °C for 1 h in the dark. Fluorescence counts in each well were measured at 480 nm (excitation) and 540 nm (emission) using a BioTek Synergy Mx microplate reader and background fluorescence from control wells containing uninfected RBCs was subtracted. A dose-response curve representing the fluorescence counts against the logarithm of the drug concentration was fitted by nonlinear regression and used to determine the IC50 of each drug. Analysis was conducted using GraphPad Prism 9.2.1. For each drug, two independent experiments, each with biological triplicates, were conducted. Data are shown as mean ± s.d. […]
# [13] = test system: HeLa; assay: MTT cytotoxicity on HeLa cells; type: cell-based, human; conditions: 72 h, read-out: HeLa LC50
# Procedure: as §1
# [14] = test system: BdDHFR-TS; assay: Inhibition of DHFR enzymatic activity of recombinant BdDHFR-TS; type: biochemical, B. duncani; conditions: 0.1 μM enzyme, 300 μM DHF, 300 μM NADPH
# Procedure: as §2, §3, §4, §5, §6, §7
# [15] = test system: HepG2; assay: MTT cytotoxicity on HepG2 cells; type: cell-based, human; conditions: 72 h, read-out: HepG2 LC50
# Procedure: as §1
compound,measurement,setting,value
CCc1nc(N)nc(N)c1-c1ccc(Cl)cc1 [Pyrimethamine],CC50 at 72 h,[1],500 µM
same,CC50 at 72 h,[2],> 30 µM
same,CC50 at 72 h,[3],> 900 µM
same,CC50 at 72 h,[4],1690 µM
same,IC50,"[5]; Babesia duncani, Erythrocyte, 60 h, read-out: B. duncani IC50",0.94 ± 0.017 µM
NC(=O)C1=CN([C@@H]2O[C@H](COP(=O)(O)OP(=O)(O)OC[C@H]3O[C@@H](n4cnc5c(N)ncnc54)[C@H](OP(=O)(O)O)[C@@H]3O)[C@@H](O)[C@H]2O)C=CC1 [NADPH],Vmax,[6],9.8 ± 2.1 μmol · min^-1 ×10^4
same,kcat,[6],0.4 ± 0.1 s⁻¹
same,Km,[6]; complementary ligand at 300 μM,32.9 ± 1 µM
same,Vmax,[7],10.1 ± 1.6 μmol · min^-1 ×10^4
same,kcat,[7],1.7 ± 0.3 s⁻¹
same,Km,[7]; complementary ligand at 300 μM,27.3 ± 0.2 µM
C=C[C@H]1C[N@@]2CC[C@H]1C[C@H]2[C@H](O)c1ccnc2ccc(OC)cc12 [quinine],susceptibility of B. duncani,[8],low susceptibility
CC[C@H]1OC(=O)[C@H](C)[C@@H](O[C@H]2C[C@@](C)(OC)[C@@H](O)[C@H](C)O2)[C@H](C)[C@@H](O[C@@H]2O[C@H](C)C[C@H](N(C)C)[C@H]2O)[C@](C)(O)C[C@@H](C)CN(C)[C@H](C)[C@@H](O)[C@]1(C)O [azithromycin],susceptibility of B. duncani,[8],low susceptibility
O=C1C(O)=C([C@H]2CC[C@H](c3ccc(Cl)cc3)CC2)C(=O)c2ccccc21 [Atovaquone],IC50,"[5]; Babesia duncani, Erythrocyte, read-out: IC50 of atovaquone, parental isolate WA1",0.072 µM
same,susceptibility of B. duncani,[8],low susceptibility
CCC[C@@H]1C[C@@H](C(=O)N[C@@H]([C@H]2O[C@H](SC)[C@H](O)[C@@H](O)[C@H]2O)[C@H](C)Cl)N(C)C1 [clindamycin],susceptibility of B. duncani,[8],low susceptibility
CC1(C)N=C(N)N=C(N)N1OCCCOc1cc(Cl)c(Cl)cc1Cl [WR-99210],CC50,[9],1000 µM
same,CC50,[10],1050 µM
same,IC50,[11],0.0068 µM
same,TI (therapeutic index),[12],>15K
same,CC50,[13],> 900 µM
same,IC50,[14],0.0039 µM
same,CC50,[15],1100 µM
same,IC50,[5]; read-out: B. duncani IC50,0.00058 µM
